In PubChem BioAssay AID328 (DTP/NCI, 2004):
Values joined by “and” are separate entries in the source; they are usually repeats but may differ in a detail not shown here. Identical values can stand only once. Inconclusive results and toxic doses are left out.

Tested on: BDF1 mice, P388 leukemia ip, median survival T/C
Test: NCI In Vivo Anticancer Drug Screen. Data for tumor model P388 Leukemia (intraperitoneal) in B6D2F1 (BDF1) mice
Settings: endpoint: median survival time, higher = longer survival
Outline: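 Antitumour effect was judged in vivo: survival in drug-treated mice, normalised to that of vehicle-dosed controls, gives the reported T/C.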

[1] = dose: 100.0 mg/kg/injection, schedule: Q01DX009 (ip), vehicle: saline with Tween-80
[2] = dose: 200.0 mg/kg/injection, schedule: Q01DX009 (ip), vehicle: saline with Tween-80
[3] = dose: 50.0 mg/kg/injection, schedule: Q01DX009 (ip), vehicle: saline with Tween-80
[4] = dose: 25.0 mg/kg/injection, schedule: Q01DX009 (ip), vehicle: saline with Tween-80
[5] = dose: 25.0 mg/kg/injection, schedule: Q04DX003 (ip), vehicle: saline with Tween-80
[6] = dose: 50.0 mg/kg/injection, schedule: Q04DX003 (ip), vehicle: saline with Tween-80
[7] = dose: 100.0 mg/kg/injection, schedule: Q04DX003 (ip), vehicle: saline with Tween-80
[8] = dose: 200.0 mg/kg/injection, schedule: Q04DX003 (ip), vehicle: saline with Tween-80
[9] = dose: 400.0 mg/kg/injection, schedule: Q04DX003 (ip), vehicle: saline with Tween-80
[10] = dose: 12.5 mg/kg/injection, schedule: Q01DX009 (ip), vehicle: Klucel (hydroxypropylcellulose) (HPC)
[11] = dose: 12.5 mg/kg/injection, schedule: Q01DX009 (ip), vehicle: saline with Tween-80
[12] = dose: 25.0 mg/kg/injection, schedule: Q01DX009 (ip), vehicle: Klucel (hydroxypropylcellulose) (HPC)

C[C@]12CCC(=O)C=C1CC[C@@H]1[C@@H]2[C@@H](O)C[C@@]2(C)[C@H]1CC[C@]2(O)C(=O)CO
T/C (dose: 6.25 mg/kg/injection, schedule: Q01DX010 (sc), vehicle: steriod suspending solution): 100 % of control | T/C (dose: 12.5 mg/kg/injection, schedule: Q01DX010 (sc), vehicle: steriod suspending solution): 100 % of control | T/C (dose: 25.0 mg/kg/injection, schedule: Q01DX010 (sc), vehicle: steriod suspending solution): 110 % of control | T/C (dose: 50.0 mg/kg/injection, schedule: Q01DX010 (sc), vehicle: steriod suspending solution): 120 % of control | T/C (dose: 100.0 mg/kg/injection, schedule: Q01DX010 (sc), vehicle: steriod suspending solution): 115 % of control and 120 % of control | T/C (dose: 200.0 mg/kg/injection, schedule: Q01DX010 (sc), vehicle: steriod suspending solution): 110 % of control

Cc1[nH]c(=O)[nH]c(=O)c1NCCO
T/C (dose: 50.0 mg/kg/injection, schedule: Q01DX009 (ip), vehicle: water): 102 % of control | T/C (dose: 100.0 mg/kg/injection, schedule: Q01DX009 (ip), vehicle: water): 109 % of control | T/C (dose: 200.0 mg/kg/injection, schedule: Q01DX009 (ip), vehicle: water): 105 % of control | T/C (dose: 400.0 mg/kg/injection, schedule: Q01DX009 (ip), vehicle: water): 112 % of control

COc1ccc(C(=O)CC(C#N)c2ccc(OC)c(OC)c2)cc1OC (stereo not drawn)
T/C [1]: 100 % of control | T/C [2]: 100 % of control | T/C (dose: 400.0 mg/kg/injection, schedule: Q01DX009 (ip), vehicle: saline with Tween-80): 95 % of control

CN(C)c1ccc(/C=C2\SC(=S)N(Cc3ccco3)C2=O)cc1
T/C [3]: 92 % of control | T/C [1]: 91 % of control | T/C [2]: 88 % of control

COC(=O)N1C=Cc2ccccc2C1C#N (stereo not drawn)
T/C (dose: 25.0 mg/kg/injection, schedule: Q01DX001 (ip), vehicle: other): 104 % of control | T/C [4]: 105 % of control | T/C [5]: 100 % of control | T/C (dose: 50.0 mg/kg/injection, schedule: Q01DX001 (ip), vehicle: other): 90 % of control | T/C [3]: 110 % of control | T/C [6]: 104 % of control | T/C (dose: 100.0 mg/kg/injection, schedule: Q01DX001 (ip), vehicle: other): 86 % of control | T/C [1]: 110 % of control | T/C [7]: 100 % of control

C[P+](c1ccc(Cl)cc1)(c1ccc(Cl)cc1)c1ccc(Cl)cc1
T/C (dose: 6.25 mg/kg/injection, schedule: Q04DX003 (ip), vehicle: saline): 100 % of control | T/C (dose: 12.5 mg/kg/injection, schedule: Q04DX003 (ip), vehicle: saline): 104 % of control | T/C (dose: 25.0 mg/kg/injection, schedule: Q04DX003 (ip), vehicle: saline): 109 % of control

CC1(C)O[C@@H]2C[C@H]3[C@@H]4CCC5=CC(=O)CC[C@]5(C)[C@@]4(F)[C@@H](O)C[C@]3(C)[C@]2(C(=O)CO)O1
T/C [7]: 108 % of control | T/C [8]: 108 % of control | T/C [9]: 100 % of control

CC(=O)[C@@]12OC(C)(C)O[C@@H]1C[C@H]1[C@@H]3C[C@H](C)C4=CC(=O)CC[C@]4(C)[C@H]3CC[C@@]12C
T/C [1]: 104 % of control | T/C [7]: 109 % of control | T/C [2]: 104 % of control | T/C [8]: 95 % of control | T/C [9]: 104 % of control

C=CC12COC(=O)C(=C)C1C1OC(=O)C(=C)C1C(O)C2 (stereo not drawn)
T/C (dose: 1.0 mg/kg/injection, schedule: Q01DX009 (ip), vehicle: water): 118 % of control | T/C (dose: 2.0 mg/kg/injection, schedule: Q01DX009 (ip), vehicle: water): 109 % of control | T/C (dose: 4.6 mg/kg/injection, schedule: Q01DX010 (ip), vehicle: carboxymethylcellulose (CMC)): 115 % of control | T/C (dose: 8.0 mg/kg/injection, schedule: Q01DX009 (ip), vehicle: water): 113 % of control | T/C (dose: 10.0 mg/kg/injection, schedule: Q01DX009 (ip), vehicle: saline + alcohol): 122 % of control | T/C (dose: 125.0 micrograms/kg/injection, schedule: Q01DX010 (ip), vehicle: carboxymethylcellulose (CMC)): 95 % of control | T/C (dose: 250.0 micrograms/kg/injection, schedule: Q01DX010 (ip), vehicle: carboxymethylcellulose (CMC)): 95 % of control | T/C (dose: 500.0 micrograms/kg/injection, schedule: Q01DX010 (ip), vehicle: carboxymethylcellulose (CMC)): 100 % of control | T/C (dose: 1000.0 micrograms/kg/injection, schedule: Q01DX010 (ip), vehicle: carboxymethylcellulose (CMC)): 104 % of control | T/C (dose: 2000.0 micrograms/kg/injection, schedule: Q01DX010 (ip), vehicle: carboxymethylcellulose (CMC)): 104 % of control | T/C (dose: 4000.0 micrograms/kg/injection, schedule: Q01DX010 (ip), vehicle: carboxymethylcellulose (CMC)): 100 % of control

CC(CCl)N(CCCl)Cc1cccc(Nc2ncnc3nc[nH]c23)c1 (stereo not drawn)
T/C (dose: 0.8 mg/kg/injection, schedule: Q01DX009 (ip), vehicle: saline): 152 % of control | T/C (dose: 1.5 mg/kg/injection, schedule: Q01DX009 (ip), vehicle: saline): 154 % of control | T/C (dose: 2.0 mg/kg/injection, schedule: Q01DX009 (ip), vehicle: saline): 164 % of control | T/C (dose: 2.5 mg/kg/injection, schedule: Q01DX009 (ip), vehicle: saline): 185 % of control | T/C (dose: 3.0 mg/kg/injection, schedule: Q01DX009 (ip), vehicle: saline): 160 % of control | T/C (dose: 5.0 mg/kg/injection, schedule: Q01DX009 (ip), vehicle: saline): 175 % of control | T/C (dose: 10.0 mg/kg/injection, schedule: Q01DX009 (ip), vehicle: saline): 180 % of control | T/C (dose: 10.0 mg/kg/injection, schedule: Q04DX003 (ip), vehicle: saline): 86 % of control

O=[N+]([O-])c1ccc(N=Nc2c(Cl)cc(O)cc2Cl)cc1
T/C (dose: 3.13 mg/kg/injection, schedule: Q01DX009 (ip), vehicle: saline with Tween-80): 95 % of control | T/C (dose: 6.25 mg/kg/injection, schedule: Q01DX009 (ip), vehicle: Klucel (hydroxypropylcellulose) (HPC)): 115 % of control | T/C (dose: 6.25 mg/kg/injection, schedule: Q01DX009 (ip), vehicle: saline with Tween-80): 95 % of control | T/C [10]: 110 % of control | T/C [11]: 95 % of control | T/C [12]: 115 % of control | T/C (dose: 35.0 mg/kg/injection, schedule: Q01DX009 (ip), vehicle: Klucel (hydroxypropylcellulose) (HPC)): 94 % of control | T/C (dose: 50.0 mg/kg/injection, schedule: Q01DX009 (ip), vehicle: Klucel (hydroxypropylcellulose) (HPC)): 97 % of control | T/C (dose: 75.0 mg/kg/injection, schedule: Q01DX009 (ip), vehicle: Klucel (hydroxypropylcellulose) (HPC)): 118 % of control | T/C [1]: 120 % of control | T/C (dose: 100.0 mg/kg/injection, schedule: Q04DX003 (ip), vehicle: saline sonified): 100 % of control | T/C (dose: 200.0 mg/kg/injection, schedule: Q04DX003 (ip), vehicle: saline sonified): 100 % of control | T/C (dose: 400.0 mg/kg/injection, schedule: Q04DX003 (ip), vehicle: saline sonified): 100 % of control

CC1=C(C)C(=O)c2c(OC(=O)c3ccccc3)c(Cl)cc(OC(=O)c3ccccc3)c2C1=O
T/C [5]: 93 % of control | T/C [6]: 92 % of control | T/C [7]: 89 % of control and 94 % of control | T/C [8]: 93 % of control | T/C [9]: 109 % of control

CCC1CC[N-]CC1.CCC1CC[N-]CC1.[Cl][Pt+2]([Cl])([Cl])[Cl]
T/C (dose: 3.12 mg/kg/injection, schedule: Q01DX009 (ip), vehicle: saline): 107 % of control | T/C (dose: 6.25 mg/kg/injection, schedule: Q01DX009 (ip), vehicle: saline): 110 % of control | T/C (dose: 12.5 mg/kg/injection, schedule: Q01DX009 (ip), vehicle: saline): 110 % of control

Cc1[nH]nc(C(N)=O)c1N=NN(C)C
T/C (dose: 132.0 mg/kg/injection, schedule: Q04DX003 (ip), vehicle: saline with Tween-80): 182 % of control | T/C [8]: 186 % of control | T/C (dose: 300.0 mg/kg/injection, schedule: Q04DX003 (ip), vehicle: saline with Tween-80): 100 % of control

CCCC(C)(O)C#CC(C)(O)CCC (stereo not drawn)
T/C [11]: 101 % of control | T/C [4]: 92 % of control | T/C [3]: 93 % of control | T/C [7]: 100 % of control | T/C [8]: 104 % of control | T/C [9]: 90 % of control

CC1(C)CCC2(CC1)CC(=O)OC2=O
T/C [7]: 95 % of control | T/C [8]: 87 % of control | T/C [9]: 104 % of control

Nc1ccccc1C(=O)Nc1ncn[nH]1
T/C [3]: 96 % of control | T/C [1]: 90 % of control | T/C [2]: 94 % of control

CC(=O)Nc1ccc(OCCOC(=O)Nc2ccc(C)cc2[N+](=O)[O-])cc1
T/C [10]: 105 % of control | T/C [12]: 93 % of control
